Test results as given in patent US20130053381A1, “2,4-DIOXO-1,4-DIHYDRO-2H-QUINAZOLIN-3-YL-SULFONAMIDE DERIVATIVES” (NOVARTIS AG, priority 2010, published 2013).
Like-named read-outs stand apart in the source and are kept apart here.

Tested on: OF1 mice
Test: Maximal electroshock test (MES Test)
Assay type: in vivo
Conditions: Mus musculus, po, read-out: %-Protection; for responders at 50 mg/kg: p.o.; for responders at 25 mg/kg: p.o. (footnote b)
In short: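 Compound given p.o. (typically 50 mg/kg) 1 h before tonic-clonic convulsions were induced via temporal electrodes (50 Hz, 18 mA, 0.2 s); seizure lasting 3 s or less counted as protection. Read-out is percent protected of five mice per condition; ED50 calculated, blood exposure sampled after shock.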

[1] = pre-treatment time −2 h (footnote a)

Row | SMILES | responders at 50 mg/kg (pre-treatment time −1 h) [%] | responders at 25 mg/kg (pre-treatment time −1 h) [%] | responders at 50 mg/kg [1] [%]
1 | CCCOC(=O)N(n1c(=O)[nH]c2cc(C(F)(F)F)c(-c3ccnn3C(C)C)cc2c1=O)S(C)(=O)=O [Example 5.07, [6-(2-Isopropyl-2H-pyrazol-3-yl)-2,4-dioxo-7-trifluoromethyl-1,4-dihydro-2H-quinazolin-3-yl]-methanesulfonyl-carbamic acid propyl ester] | 40 | – | –
2 | CCCCOC(=O)N(n1c(=O)[nH]c2cc(C(F)(F)F)c(-c3ccnn3C(C)C)cc2c1=O)S(C)(=O)=O [Example 5.08, [6-(2-Isopropyl-2H-pyrazol-3-yl)-2,4-dioxo-7-trifluoromethyl-1,4-dihydro-2H-quinazolin-3-yl]-methanesulfonyl-carbamic acid butyl ester] | 100 | – | –
3 | CC(C)COC(=O)N(n1c(=O)[nH]c2cc(C(F)(F)F)c(-c3ccnn3C(C)C)cc2c1=O)S(C)(=O)=O [Example 5.09, [6-(2-Isopropyl-2H-pyrazol-3-yl)-2,4-dioxo-7-trifluoromethyl-1,4-dihydro-2H-quinazolin-3-yl]-methanesulfonyl-carbamic acid isobutyl ester] | 40 | – | –
4 | COCCOC(=O)N(n1c(=O)[nH]c2cc(C(F)(F)F)c(-c3ccnn3C(C)C)cc2c1=O)S(C)(=O)=O [Example 5.10, [6-(2-Isopropyl-2H-pyrazol-3-yl)-2,4-dioxo-7-trifluoromethyl-1,4-dihydro-2H-quinazolin-3-yl]-methanesulfonyl-carbamic acid 2-methoxy-ethyl ester] | 20 | – | –
5 | CCOC(=O)CCCC(=O)N(n1c(=O)[nH]c2cc(C(F)(F)F)c(-c3ccnn3C(C)C)cc2c1=O)S(C)(=O)=O [Example 5.11, 5-{[6-(2-Isopropyl-2H-pyrazol-3-yl)-2,4-dioxo-7-trifluoromethyl-1,4-dihydro-2H-quinazolin-3-yl]-methanesulfonyl-amino}-5-oxo-pentanoic acid ethyl ester] | 40 | – | –
6 | CCOC(=O)CC(=O)N(n1c(=O)[nH]c2cc(C(F)(F)F)c(-c3ccnn3C(C)C)cc2c1=O)S(C)(=O)=O [Example 5.12, 3-{[6-(2-Isopropyl-2H-pyrazol-3-yl)-2,4-dioxo-7-trifluoromethyl-1,4-dihydro-2H-quinazolin-3-yl]-methanesulfonyl-amino}-3-oxo-propionic acid ethyl ester] | 40 | – | –
7 | CSCCC(=O)N(n1c(=O)[nH]c2cc(C(F)(F)F)c(-c3ccnn3C(C)C)cc2c1=O)S(C)(=O)=O [Example 5.13, N-[6-(2-Isopropyl-2H-pyrazol-3-yl)-2,4-dioxo-7-trifluoromethyl-1,4-dihydro-2H-quinazolin-3-yl]-N-(3-methylsulfanyl-propionyl)-methanesulfonamide] | 40 | – | –
8 | CC(=O)N(n1c(=O)[nH]c2cc(C(F)F)c(-c3ccnn3C(C)C)cc2c1=O)S(C)(=O)=O [Example 6.01, N-Acetyl-N-[7-difluoromethyl-6-(2-isopropyl-2H-pyrazol-3-yl)-2,4-dioxo-1,4-dihydro-2H-quinazolin-3-yl]-methanesulfonamide] | 40 | 20 | –
9 | CCCC(=O)N(n1c(=O)[nH]c2cc(C(F)F)c(-c3ccnn3C(C)C)cc2c1=O)S(C)(=O)=O [Example 6.02, N-Butyryl-N-[7-difluoromethyl-6-(2-isopropyl-2H-pyrazol-3-yl)-2,4-dioxo-1,4-dihydro-2H-quinazolin-3-yl]-methanesulfonamide] | 40 | 0 | –
10 | CCCCC(=O)N(n1c(=O)[nH]c2cc(C(F)F)c(-c3ccnn3C(C)C)cc2c1=O)S(C)(=O)=O [Example 6.03, N-[7-Difluoromethyl-6-(2-isopropyl-2H-pyrazol-3-yl)-2,4-dioxo-1,4-dihydro-2H-quinazolin-3-yl]-N-pentanoyl-methanesulfonamide] | 40 | 0 | –
11 | CCCOC(=O)N(n1c(=O)[nH]c2cc(C(F)F)c(-c3ccnn3C(C)C)cc2c1=O)S(C)(=O)=O [Example 6.04, [7-Difluoromethyl-6-(2-isopropyl-2H-pyrazol-3-yl)-2,4-dioxo-1,4-dihydro-2H-quinazolin-3-yl]-methanesulfonyl-carbamic acid propyl ester] | 20 | 0 | –
12 | CCC(=O)N(n1c(=O)[nH]c2cc(C(F)F)c(-c3ccnn3C(C)C)cc2c1=O)S(C)(=O)=O [Example 6.05, N-[7-Difluoromethyl-6-(2-isopropyl-2H-pyrazol-3-yl)-2,4-dioxo-1,4-dihydro-2H-quinazolin-3-yl]-N-propionyl-methanesulfonamide] | 80 | 60 | –
13 | CCOC(=O)N(n1c(=O)[nH]c2cc(C(F)F)c(-c3ccnn3C(C)C)cc2c1=O)S(C)(=O)=O [Example 6.06, [7-Difluoromethyl-6-(2-isopropyl-2H-pyrazol-3-yl)-2,4-dioxo-1,4-dihydro-2H-quinazolin-3-yl]-methanesulfonyl-carbamic acid ethyl ester] | 60 | 20 | –
14 | COCCOC(=O)N(n1c(=O)[nH]c2cc(C(F)F)c(-c3ccnn3C(C)C)cc2c1=O)S(C)(=O)=O [Example 6.07, [7-Difluoromethyl-6-(2-isopropyl-2H-pyrazol-3-yl)-2,4-dioxo-1,4-dihydro-2H-quinazolin-3-yl]-methanesulfonyl-carbamic acid 2-methoxy-ethyl ester] | 40 | – | –
15 | Cc1nccn1-c1cc2c(=O)n(NS(C)(=O)=O)c(=O)[nH]c2cc1C(F)(F)F [Example 7.0, N-[6-(2-Methyl-imidazol-1-yl)-2,4-dioxo-7-trifluoromethyl-1,4-dihydro-2H-quinazolin-3-yl]-methanesulfonamide] | 0 | – | –
16 | CCOC(=O)N(n1c(=O)[nH]c2cc(C(F)(F)F)c(-n3ccnc3C)cc2c1=O)S(C)(=O)=O [Example 7.01, Methanesulfonyl-[6-(2-methyl-imidazol-1-yl)-2,4-dioxo-7-trifluoromethyl-1,4-dihydro-2H-quinazolin-3-yl]-carbamic acid ethyl ester] | 40 | – | –
17 | CCCC(=O)N(n1c(=O)[nH]c2cc(C(F)(F)F)c(-n3ccnc3C)cc2c1=O)S(C)(=O)=O [Example 7.02, N-Butyryl-N-[6-(2-methyl-imidazol-1-yl)-2,4-dioxo-7-trifluoromethyl-1,4-dihydro-2H-quinazolin-3-yl]-methanesulfonamide] | 20 | – | –
18 | CCCOC(=O)N(n1c(=O)[nH]c2cc(C(F)(F)F)c(-n3ccnc3C)cc2c1=O)S(C)(=O)=O [Example 7.03, Methanesulfonyl-[6-(2-methyl-imidazol-1-yl)-2,4-dioxo-7-trifluoromethyl-1,4-dihydro-2H-quinazolin-3-yl]-carbamic acid propyl ester] | 40 | – | –
19 | Cc1nccn1-c1cc2c(=O)n(N(C(=O)OCC(C)C)S(C)(=O)=O)c(=O)[nH]c2cc1C(F)(F)F [Example 7.04, Methanesulfonyl-[6-(2-methyl-imidazol-1-yl)-2,4-dioxo-7-trifluoromethyl-1,4-dihydro-2H-quinazolin-3-yl]-carbamic acid isobutyl ester] | 40 | – | –
20 | CCC(=O)N(n1c(=O)[nH]c2cc(C(F)(F)F)c(-n3cccc3)cc2c1=O)S(C)(=O)=O [Example 8.01, N-(2,4-Dioxo-6-pyrrol-1-yl-7-trifluoromethyl-1,4-dihydro-2H-quinazolin-3-yl)-N-propionyl-methanesulfonamide] | 20 | – | –
21 | CCCC(=O)N(n1c(=O)[nH]c2cc(C(F)(F)F)c(-n3cccc3)cc2c1=O)S(C)(=O)=O [Example 8.02, N-Butyryl-N-(2,4-dioxo-6-pyrrol-1-yl-7-trifluoromethyl-1,4-dihydro-2H-quinazolin-3-yl)-methanesulfonamide] | 20 | – | –
22 | CC(=O)OCC(=O)N(n1c(=O)[nH]c2cc(C(F)(F)F)c(-n3cccc3)cc2c1=O)S(C)(=O)=O [Example 8.03, Acetic acid 2-[(2,4-dioxo-6-pyrrol-1-yl-7-trifluoromethyl-1,4-dihydro-2H-quinazolin-3-yl)-methanesulfonyl-amino]-2-oxo-ethyl ester] | 40 | – | –
23 | COC(=O)N(n1c(=O)[nH]c2cc(C(F)(F)F)c(-n3cccc3)cc2c1=O)S(C)(=O)=O [Example 8.04, (2,4-Dioxo-6-pyrrol-1-yl-7-trifluoromethyl-1,4-dihydro-2H-quinazolin-3-yl)-methanesulfonyl-carbamic acid methyl ester] | 20 | – | –
24 | CCOC(=O)N(n1c(=O)[nH]c2cc(C(F)(F)F)c(-n3cccc3)cc2c1=O)S(C)(=O)=O [Example 8.05, (2,4-Dioxo-6-pyrrol-1-yl-7-trifluoromethyl-1,4-dihydro-2H-quinazolin-3-yl)-methanesulfonyl-carbamic acid ethyl ester] | 60 | – | –
25 | CC(C)CC(=O)N(n1c(=O)[nH]c2cc(C(F)(F)F)c(-n3cnnc3)cc2c1=O)S(C)(=O)=O [Example 9.01, N-(2,4-Dioxo-6-[1,2,4]triazol-4-yl-7-trifluoromethyl-1,4-dihydro-2H-quinazolin-3-yl)-N-(3-methyl-butyryl)-methanesulfonamide] | – | – | 40
26 | CCCCCC(=O)N(n1c(=O)[nH]c2cc(C(F)(F)F)c(-n3cnnc3)cc2c1=O)S(C)(=O)=O [Example 9.02, N-(2,4-Dioxo-6-[1,2,4]triazol-4-yl-7-trifluoromethyl-1,4-dihydro-2H-quinazolin-3-yl)-N-hexanoyl-methanesulfonamide] | – | – | 20
27 | CCCCC(=O)N(n1c(=O)[nH]c2cc(C(F)(F)F)c(-n3cnnc3)cc2c1=O)S(C)(=O)=O [Example 9.03, N-(2,4-Dioxo-6-[1,2,4]triazol-4-yl-7-trifluoromethyl-1,4-dihydro-2H-quinazolin-3-yl)-N-pentanoyl-methanesulfonamide] | 20 | – | –
